{"source": "paper PMC3914206", "format_in_all_cases": "binding", "conditions_in_all_cases": "Compound Concentration 10 µM", "key": {"panel of 442 kinases [1]": {"molecular_target": "T1, panel of 442 kinases (Homo sapiens, UniProt P10721)", "T1 construct": "purchased KINOMEscan", "T1 sequence (P10721 26-976)": "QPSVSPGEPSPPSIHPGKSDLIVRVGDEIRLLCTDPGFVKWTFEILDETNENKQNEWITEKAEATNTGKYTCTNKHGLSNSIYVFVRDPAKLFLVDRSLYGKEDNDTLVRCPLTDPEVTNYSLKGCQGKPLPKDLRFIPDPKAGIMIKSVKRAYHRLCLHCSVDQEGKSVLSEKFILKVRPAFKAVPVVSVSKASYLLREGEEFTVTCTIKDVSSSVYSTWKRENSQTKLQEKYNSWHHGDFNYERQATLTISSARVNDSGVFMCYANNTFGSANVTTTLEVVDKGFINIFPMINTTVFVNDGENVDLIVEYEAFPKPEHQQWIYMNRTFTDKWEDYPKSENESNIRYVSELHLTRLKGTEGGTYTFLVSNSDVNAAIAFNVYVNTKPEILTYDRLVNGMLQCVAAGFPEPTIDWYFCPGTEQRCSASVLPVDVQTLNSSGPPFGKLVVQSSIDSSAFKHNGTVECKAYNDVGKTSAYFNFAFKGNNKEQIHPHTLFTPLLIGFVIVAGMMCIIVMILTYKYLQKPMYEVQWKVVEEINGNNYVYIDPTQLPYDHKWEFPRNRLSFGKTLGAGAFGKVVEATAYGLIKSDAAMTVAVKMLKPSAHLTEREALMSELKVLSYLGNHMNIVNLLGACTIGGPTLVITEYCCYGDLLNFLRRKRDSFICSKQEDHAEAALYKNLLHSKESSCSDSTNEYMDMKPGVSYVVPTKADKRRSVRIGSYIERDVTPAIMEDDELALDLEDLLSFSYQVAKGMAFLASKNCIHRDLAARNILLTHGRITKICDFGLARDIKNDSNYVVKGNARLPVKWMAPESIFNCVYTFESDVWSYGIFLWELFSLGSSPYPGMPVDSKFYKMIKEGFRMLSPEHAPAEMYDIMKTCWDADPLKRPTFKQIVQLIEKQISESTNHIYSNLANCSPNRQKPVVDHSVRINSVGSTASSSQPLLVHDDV", "text": "(§1) We assessed the selectivity of members of this scaffold using the KINOMEscan methodology across a near comprehensive panel of 442 kinases [[18,27]]."}, "panel of 442 kinases [2]": {"molecular_target": "T2, panel of 442 kinases (Homo sapiens, UniProt P42685)", "T2 construct": "purchased KINOMEscan", "T2 sequence (P42685 whole entry)": "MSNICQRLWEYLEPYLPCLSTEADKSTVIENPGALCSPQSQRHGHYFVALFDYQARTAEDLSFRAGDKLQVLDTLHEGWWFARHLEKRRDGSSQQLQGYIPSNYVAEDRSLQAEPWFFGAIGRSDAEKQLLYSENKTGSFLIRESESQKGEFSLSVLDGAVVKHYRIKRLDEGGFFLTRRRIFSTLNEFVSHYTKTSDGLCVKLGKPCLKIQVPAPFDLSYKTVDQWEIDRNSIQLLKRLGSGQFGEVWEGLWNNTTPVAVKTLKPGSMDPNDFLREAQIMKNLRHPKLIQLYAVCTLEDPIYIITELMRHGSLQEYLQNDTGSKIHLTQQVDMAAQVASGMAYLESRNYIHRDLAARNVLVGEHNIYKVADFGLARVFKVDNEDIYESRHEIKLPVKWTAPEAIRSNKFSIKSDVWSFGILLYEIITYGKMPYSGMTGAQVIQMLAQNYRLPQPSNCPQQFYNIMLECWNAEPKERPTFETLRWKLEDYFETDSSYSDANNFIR", "text": "as §1"}, "panel of 442 kinases [3]": {"molecular_target": "T3, panel of 442 kinases (Homo sapiens, UniProt P45985)", "T3 construct": "purchased KINOMEscan", "T3 sequence (P45985 1-399)": "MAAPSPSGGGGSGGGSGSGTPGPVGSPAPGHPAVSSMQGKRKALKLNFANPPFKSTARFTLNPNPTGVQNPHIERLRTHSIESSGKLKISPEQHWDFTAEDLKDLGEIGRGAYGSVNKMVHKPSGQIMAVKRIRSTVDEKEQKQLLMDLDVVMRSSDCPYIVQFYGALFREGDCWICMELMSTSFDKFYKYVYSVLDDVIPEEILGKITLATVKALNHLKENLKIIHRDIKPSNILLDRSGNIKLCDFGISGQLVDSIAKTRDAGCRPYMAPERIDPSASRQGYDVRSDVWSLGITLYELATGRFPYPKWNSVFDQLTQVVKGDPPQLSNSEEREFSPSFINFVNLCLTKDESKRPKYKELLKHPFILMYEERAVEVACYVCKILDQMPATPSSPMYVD", "text": "as §1"}}, "data": [{"compound": "CCOc1cc(C(=O)N2CCC(N3CCN(C)CC3)CC2)ccc1Nc1ncc2c(n1)N(C1CCCC1)c1ccccc1C(=O)N2C", "note": "[Compound 26]", "values": [{"measurement": "KINOMEscan: KIT", "setting": "panel of 442 kinases [1]", "result": 100}, {"measurement": "KINOMEscan: FRK", "setting": "panel of 442 kinases [2]", "result": 87}, {"measurement": "KINOMEscan: MEK4", "setting": "panel of 442 kinases [3]", "result": 100}]}, {"compound": "COc1cc(C(=O)N2CCC(N3CCN(C)CC3)CC2)ccc1Nc1ncc2c(n1)N(C1CCCC1)c1ccccc1C(=O)N2C", "note": "[Compound 25, 11-cyclopentyl-2-((2-methoxy-4-(4-(4-methylpiperazin-1-yl)piperidine-1-carbonyl)phenyl)amino)-5-methyl-5H-benzo[e]pyrimido[5,4-b][1,4]diazepin-6(11H)-one]", "values": [{"measurement": "KINOMEscan: KIT", "setting": "panel of 442 kinases [1]", "result": 91}, {"measurement": "KINOMEscan: FRK", "setting": "panel of 442 kinases [2]", "result": 24}, {"measurement": "KINOMEscan: MEK4", "setting": "panel of 442 kinases [3]", "result": 100}]}, {"compound": "COc1cc(C(=O)N2CCC(N3CCN(C)CC3)CC2)ccc1Nc1ncc2c(n1)N1CCc3cccc(c31)C(=O)N2C", "note": "[Compound 24]", "values": [{"measurement": "KINOMEscan: FRK", "setting": "panel of 442 kinases [2]", "result": 56}]}, {"compound": "COc1cc(C(=O)N2CCC(N3CCN(C)CC3)CC2)ccc1Nc1ncc2c(n1)N(C)c1ccccc1C(=O)N2C", "note": "[15 (LRRK2-IN-1)]", "values": [{"measurement": "KINOMEscan: KIT", "setting": "panel of 442 kinases [1]", "result": 100}, {"measurement": "KINOMEscan: FRK", "setting": "panel of 442 kinases [2]", "result": 34}, {"measurement": "KINOMEscan: MEK4", "setting": "panel of 442 kinases [3]", "result": 100}]}]}
